Experimental data as given in US7727933B2, “2-ethyl-4,6-dimethyl-phenyl-substituted spirocyclic tetramic acid derivatives” (Bayer CropScience AG, priority 2003, dated 2010).

What was measured:
Type in all cases: in vivo
Lolium = assay: Herbicidal post-emergence action (Example A); settings: 320 g of a.i./ha, rated visually after about 3 weeks, 100% = plants have died
Experimental: (§1) Seeds of monocotyledonous and dicotyledonous weed and crop plants are placed into sandy loam in wood fibre pots, covered with soil and cultivated in a greenhouse under good growth conditions. 2-3 weeks after sowing, the test plants are treated at the one-leaf stage. The test compounds, formulated as wettable powders (WP), are, in various dosages with a water application rate of 600 l/ha (converted), with 0.2% of wetting agent added, sprayed onto the green parts of the plants. After the test plants were kept in the greenhouse under optimum growth conditions for about 3 weeks, the effect of the preparations is rated visually in comparison to untreated controls (herbicidal effect in percent (%): 100% effect=the plants have died, 0% effect=like control plants).

Setaria = assay: Herbicidal post-emergence action (Example A); settings: 320 g of a.i./ha, rated visually after about 3 weeks, 100% = plants have died
Experimental: as §1

Avena sativa = assay: Herbicidal post-emergence action (Example A); settings: 320 g of a.i./ha, rated visually after about 3 weeks, 100% = plants have died
Experimental: as §1

Summer barley = assay: Herbicidal post-emergence action with use of safeners (Example B), crop plant compatibility; settings: without safener, rated 3-4 weeks after treatment
Experimental: Seeds of monocotyledonous and dicotyledonous weed and crop plants are placed into sandy loam in wood fibre pots or in plastic pots, covered with soil and cultivated in a greenhouse, during the vegetation period also outdoors outside of the greenhouse, under good growth conditions. 2-3 weeks after sowing, the test plants are treated at the one- to three-leaf stage. The test compounds, formulated as wettable powders (WP) or emulsifiable concentrates (EC) are, in various dosages with a water application rate of 300 l/ha (converted), with wetting agent (0.2 to 0.3%) added, sprayed onto the plants and the surface of the soil. 3-4 weeks after the treatment of the test plants, the effect of the preparations is rated visually in comparison to untreated controls (herbicidal effect in percent (%): 100% effect=the plants have died, 0% effect=like control plants). […]

Q: With `CCc1cc(C)cc(C)c1C1=C(OC(=O)COC)C2(CCC(OC)CC2)NC1=O` (centres unmarked) [Ex. I-b-1] as the compound, how does the “herbicidal effect in percent, Lolium” value (Lolium) read?
A: The value was 100%.

Q: And the “herbicidal effect in percent, Setaria” value (Setaria)?
A: Its value is 90%.

Q: And the “herbicidal effect in percent, Avena sativa” value (Avena sativa)?
A: Its value is 100%.

Q: And the “Summer barley observed (%)” value (Summer barley; 12.5 g of a.i./ha)?
A: Its value is 65%.

Q: And the “Summer barley observed (%)” value (Summer barley; 25 g of a.i./ha)?
A: The value was 93%.
